Active and inactive are the calls of the source.
Experiments:
[1] = cells; format: functional, cell-based
[2] = cells; format: functional, cell-based; remark: listed apart in the source
[3] = target: T1, Mannose-6-phosphate isomerase (Homo sapiens, UniProt P34949); experiment: MPI inhibition at elevated mannose 6-phosphate – biochemical, fluorescence intensity, high mannose 6-phosphate, primary screen (AID 1220)
T1 sequence (P34949 whole entry): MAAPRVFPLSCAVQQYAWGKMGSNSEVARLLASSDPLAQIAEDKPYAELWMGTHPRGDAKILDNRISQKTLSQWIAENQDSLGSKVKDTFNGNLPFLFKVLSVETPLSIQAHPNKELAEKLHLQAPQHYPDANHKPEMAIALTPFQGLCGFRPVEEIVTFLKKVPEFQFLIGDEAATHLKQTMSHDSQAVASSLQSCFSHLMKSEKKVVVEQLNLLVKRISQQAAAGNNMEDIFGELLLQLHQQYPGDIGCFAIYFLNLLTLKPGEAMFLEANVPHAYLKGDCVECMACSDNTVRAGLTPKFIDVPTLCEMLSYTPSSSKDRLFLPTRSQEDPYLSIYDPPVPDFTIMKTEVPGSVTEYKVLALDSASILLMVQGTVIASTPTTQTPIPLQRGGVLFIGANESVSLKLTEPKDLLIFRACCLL

[4] = target: T2, Heat shock factor protein 1 (Mus musculus, UniProt P38532); experiment: decrease of HSF1-responsive luciferase luminescence – cell-based, NIH3T3, dose retest, confirmation (AID 2382); format: functional;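 also: NIH3T3 fibroblasts with HSF1-driven luciferase reporter stressed by proteasome inhibitor MG132; luminescence from HSF1-driven luciferase expression after 8 hours of MG132 stress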
T2 sequence (P38532 whole entry): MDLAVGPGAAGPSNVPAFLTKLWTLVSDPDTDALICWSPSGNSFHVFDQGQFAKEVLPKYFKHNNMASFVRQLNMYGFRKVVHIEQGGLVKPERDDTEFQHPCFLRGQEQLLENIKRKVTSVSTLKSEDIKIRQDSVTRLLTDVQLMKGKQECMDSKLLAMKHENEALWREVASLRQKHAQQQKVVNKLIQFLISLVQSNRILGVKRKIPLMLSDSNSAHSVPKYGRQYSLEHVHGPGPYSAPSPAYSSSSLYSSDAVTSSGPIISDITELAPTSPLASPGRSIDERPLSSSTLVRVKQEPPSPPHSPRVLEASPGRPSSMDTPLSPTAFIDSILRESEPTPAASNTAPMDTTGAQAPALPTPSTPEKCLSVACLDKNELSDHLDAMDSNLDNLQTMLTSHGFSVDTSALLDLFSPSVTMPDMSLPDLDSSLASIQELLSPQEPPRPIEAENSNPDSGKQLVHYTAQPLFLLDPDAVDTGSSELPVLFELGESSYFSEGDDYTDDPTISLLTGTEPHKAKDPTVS

[5] = target: T3, Leucine aminopeptidase (Plasmodium falciparum 3D7, UniProt Q8IL11); experiment: P. falciparum M17LAP inhibitors, primary screen, biochemical, fluorogenic H-Leu-NHMec substrate, 1536-well (AID 1619); format: functional
T3 sequence (Q8IL11 whole entry): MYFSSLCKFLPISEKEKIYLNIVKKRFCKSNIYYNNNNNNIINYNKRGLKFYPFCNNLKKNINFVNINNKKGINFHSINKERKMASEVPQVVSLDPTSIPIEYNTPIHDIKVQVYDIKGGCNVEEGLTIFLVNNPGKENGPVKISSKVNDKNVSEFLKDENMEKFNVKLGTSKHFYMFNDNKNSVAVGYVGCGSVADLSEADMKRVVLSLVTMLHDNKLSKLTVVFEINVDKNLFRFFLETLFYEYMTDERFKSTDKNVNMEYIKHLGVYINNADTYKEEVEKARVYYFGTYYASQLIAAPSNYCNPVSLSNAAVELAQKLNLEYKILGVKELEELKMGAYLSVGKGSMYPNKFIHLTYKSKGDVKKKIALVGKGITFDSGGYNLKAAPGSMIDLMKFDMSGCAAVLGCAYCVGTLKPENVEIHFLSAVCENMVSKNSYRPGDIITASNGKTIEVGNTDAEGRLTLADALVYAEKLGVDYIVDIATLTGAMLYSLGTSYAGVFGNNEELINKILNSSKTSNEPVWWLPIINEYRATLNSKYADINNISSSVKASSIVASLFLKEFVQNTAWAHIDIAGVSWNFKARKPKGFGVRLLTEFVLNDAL

[6] = system: HEK293; experiment: EBV LMP1 TES2 canonical NF-kB signalling blockers – cell-based, HEK293, luciferase, cherry-pick, dose response (AID 588343); format: functional; details: Homo sapiens
[7] = Luminescence Cell-Based Dose Confirmation HTS to Identify Activators of 5'UTR Stem-Loop Driven Alpha-Synuclein mRNA Translation in H4 Neuroglioblastoma Cells. [Related pubchem assays: 1829 (Project Summary), 1814 (Primary HTS)]; format: functional
[8] = Luminescence Cell-Based Dose Response HTS to Identify Activators of Luciferase Translation or Activity in H4 […] Cells. [Related pubchem assays: 1829 (Project Summary), 1814 (Primary HTS)]; format: functional
[9] = Trypanosoma cruzi growth suppression in host cells – NIH3T3 host cells, beta-gal luminescence, confirmation (AID 2044); format: functional, cell-based;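 also: intracellular parasites grown in NIH/3T3 mouse fibroblasts as host cells; luminescent beta-galactosidase reporter signal from transgenic T. cruzi replicating inside host cells; inhibitors lower the luminescence signal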
[10] = system: H4; experiment: Luminescence Cell-Based Dose Response HTS to Identify Activators of 5'UTR Stem-Loop Driven Prion Protein mRNA Translation in H4 Neuroglioblastoma Cells. [Related pubchem assays: 1829 (Project Summary), 1814 (Primary HTS)]; format: functional; details: Homo sapiens
[11] = target: T4, DNA repair protein RAD52 homolog (Homo sapiens, UniProt P43351); format: functional, biochemical
T4 sequence (P43351 whole entry): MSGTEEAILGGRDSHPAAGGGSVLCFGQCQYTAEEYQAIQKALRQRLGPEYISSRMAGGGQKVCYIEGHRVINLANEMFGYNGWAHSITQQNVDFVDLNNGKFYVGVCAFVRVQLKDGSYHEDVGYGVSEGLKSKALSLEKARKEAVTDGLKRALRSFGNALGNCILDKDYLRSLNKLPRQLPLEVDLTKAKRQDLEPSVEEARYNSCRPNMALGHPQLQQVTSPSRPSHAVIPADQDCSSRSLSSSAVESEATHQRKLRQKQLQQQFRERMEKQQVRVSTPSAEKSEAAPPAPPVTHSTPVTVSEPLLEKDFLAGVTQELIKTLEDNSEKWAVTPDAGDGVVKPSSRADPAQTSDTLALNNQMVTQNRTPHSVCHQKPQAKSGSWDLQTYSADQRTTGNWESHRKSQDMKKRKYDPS

[12] = NIH3T3 cell viability loss – ATP luminescence, mouse fibroblasts, counter-screen, dose response (AID 2010); format: functional, cell-based;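 also: cells exposed to compound for about 90 hours before reading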
[13] = toxicity toward HepG2 liver cells – cell-based, plate reader, cherry-pick, antagonist series, cytotoxicity control, dose response (AID 743416); format: functional
[14] = blockade of melanocortin 4 receptor signaling – cell-based, plate reader, cherry pick, counter-screen for LGR2 antagonist project, dose response (AID 743444); format: functional;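 also: transfected HEK 293 cells stimulated with alpha-MSH peptide; potency of inhibitors of the alpha-MSH evoked signal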
[15] = blockers of bursicon-stimulated LGR2 cAMP reporter – cell-based, HEK293, CRE-luciferase reporter, cherry pick, set 2, dose response (AID 743343); format: functional;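 also: transfected cells were stimulated with diluted bursicon conditioned medium after compound addition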
[16] = cells; format: functional, cell-based; remark: listed apart in the source
[17] = cells; format: functional, cell-based; remark: listed apart in the source
[18] = A549 cell cytotoxicity, dose response, cytotoxicity control, plate reader, cherry-pick, antagonist series (AID 743412); format: functional, cell-based
[19] = luciferase reporter signal suppression in cells – H4 neuroglioma cells, luminescence, dose response (AID 1990); format: functional, cell-based
[20] = alpha-synuclein stem-loop luciferase translation blockers – H4 neuroglioma cells, luminescence, confirmation (AID 1988); format: functional, cell-based
[21] = Luminescence Cell-Based Dose Response HTS to Identify Inhibitors of 5'UTR Stem-Loop Driven Prion Protein mRNA Translation in H4 Neuroglioblastoma Cells. [Related pubchem assays: 1827 (Project Summary), 1813 (Primary HTS)]; format: functional
[22] = intracellular Trypanosoma cruzi inhibitors in host cells – cell-based, plate reader, cherry-pick samples, set 3, dose response (AID 651818); format: functional;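 also: compounds incubated with infected cells for about four days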
[23] = toxicity to human HepG2 hepatoma cells – cell-based, plate reader, dry powder samples, cytotoxicity control, dose response (AID 1159569); format: functional;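 also: inhibitor potency with signal falling toward the positive control level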
[24] = Dd2 malaria parasite growth inhibition potency – SYBR Green, dry powder samples, dose response (AID 1159566); format: functional, cell-based;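 also: potency for growth inhibition with lower SYBR green DNA signal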
[25] = growth inhibition of PfATP4-mutant resistant parasites – NITD609-resistant line, SYBR Green, dry powder, dose response (AID 1159571); format: functional, cell-based;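 also: parasites synchronized at ring stage by sorbitol before testing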
[26] = growth inhibition of yeast DHODH-expressing 3D7 parasites – SYBR Green, dry powder samples, dose response (AID 1159570); format: functional, cell-based;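 also: parasite growth measured after 72 hours of compound exposure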
[27] = P. falciparum Dd2 growth inhibitors, dose response, SYBR Green, cherry-picked samples (AID 1159567); format: functional, cell-based
[28] = toxicity to human hepatoma HepG2 cells – cell-based, cherry-picked samples, cytotoxicity control, dose response (AID 1159577); format: functional

## Cc1nc(NCCc2ccccc2)c(C#N)c(C)c1[N+](=O)[O-]
[1]
  EC50: > 350 µM (not active)
[2]
  EC50: > 350 µM (not active)

## CCOc1cc(N2CCOCC2)c(OCC)cc1N=C(S)NCCCOC
[3]
  IC50: > 50 µM (not active)

## CCCn1c(C)cc(C(=O)COC(=O)c2cccnc2O)c1C
[4]
  EC50: 0.289 µM (active)
[5]
  IC50: 15.3 µM (active)
[6]
  AC50: 5.4 µM (active)

## COc1cc2c(cc1OC)C(c1ccc(-c3ccccc3Cl)o1)=NCC2
[6]
  AC50: 15.2 µM (active)

## COc1cccc(-c2nc(N3CCN(C)CC3)c3ccccc3n2)c1O
[7]
  EC50: > 120 µM (not active)
[8]
  EC50: 12.9 µM (active)
[9]
  EC50: < 0.1 µM (active)
[10]
  EC50: > 120 µM (not active)
[11]
  AC50: 3.52 µM (active)
[12]
  EC50: > 60 µM (not active)

## CCOC(=O)c1sc(NC(=O)Nc2ccccc2F)nc1C
[13]
  AC50: > 52 µM (inactive)
[14]
  AC50: 4.34 µM (active)
[15]
  AC50: 2.48 µM (active)

## CCC(c1nnnn1Cc1ccco1)N(CCc1ccccc1)Cc1cc2cc(C)ccc2nc1O (stereo unspecified)
[16]
  IC50: > 29.9 µM (inactive)
[17]
  EC50: > 29.9 µM (inactive)

## C=CCc1c(C)nc2cc(-c3ccc(C)cc3)nn2c1O
[13]
  AC50: 22.6 µM (active)
[14]
  AC50: 26.2 µM (active)
[15]
  AC50: 26.4 µM (active)
[18]
  AC50: 13.6 µM (active)

## CCc1nc(SCC(=O)c2ccc3c(c2)OCCO3)c2ccccc2n1
[6]
  AC50: 32.8 µM (active)

## CC(=O)OCCc1c2ccccc2c(CCCN(C)C)c2ccccc12
[19]
  EC50: > 120 µM (not active)
[20]
  EC50: > 120 µM (not active)
[11]
  AC50: 11.2 µM (active)
[21]
  EC50: > 120 µM (not active)

## C[C@H](CO)N1C[C@H](C)[C@@H](CN(C)S(=O)(=O)c2ccc(F)cc2)Oc2c(NC(=O)NC3CCCCC3)cccc2C1=O
[22]
  AC50: 7.84 µM (active)

## Cc1ccc(S(=O)(=O)Nc2ccc3c(c2)C(=O)N([C@@H](C)CO)C[C@H](C)[C@H](CN(C)Cc2ccc(-c4ccccc4)cc2)O3)cc1
[22]
  AC50: 5.6 µM (active)

## C[C@@H]1CCCCO[C@@H](CN(C)Cc2ccc(C(=O)Nc3ccccc3N)cc2)[C@@H](C)CN([C@H](C)CO)C(=O)c2cc(NS(=O)(=O)c3cccs3)ccc2O1
[22]
  AC50: 2.39 µM (active)

## C[C@H]1CN([C@@H](C)CO)C(=O)Cc2cc(NS(=O)(=O)c3ccc(Cl)cc3)ccc2O[C@@H]1CN(C)Cc1ccc(Oc2ccccc2)cc1
[22]
  AC50: 3.33 µM (active)

## C[C@@H]1CN([C@H](C)CO)C(=O)Cc2cc(NS(=O)(=O)c3ccc(Cl)cc3)ccc2O[C@H]1CN(C)Cc1ccccc1
[22]
  AC50: 3.09 µM (active)

## C[C@H]1CN([C@@H](C)CO)C(=O)CCCn2nncc2CO[C@@H]1CN(C)C(=O)Nc1ccc(N2CCN(C)CC2)cc1
[11]
  AC50: 28.2 µM (active)

## C/C(=N\NC(=O)CN1CCCCC1)c1ccccc1O
[1]
  EC50: > 350 µM (not active)
[2]
  EC50: 29.7 µM (active)

## COc1ccccc1CN1CC2(C1)[C@H](c1ccccc1)[C@@H](CO)N2Cc1ccccc1
[23]
  AC50: 24.9 µM (active)
[24]
  AC50: 0.477 µM (active)
[25]
  AC50: 0.656 µM (active)
[26]
  AC50: 0.765 µM (active)

## COc1cccc(S(=O)(=O)N2CCC3(CC2)CN[C@H](CO)c2[nH]c4cc(OC)ccc4c23)c1
[27]
  AC50: 2.6 µM (active)
[23]
  AC50: 33.2 µM (active)
[24]
  AC50: 2.53 µM (active)
[25]
  AC50: 2.52 µM (active)
[26]
  AC50: 4.68 µM (active)

## N#C[C@H]1[C@@H](c2ccc(C#Cc3ccccc3F)cc2)[C@@H](CO)N1C(=O)C1CCCC1
[28]
  AC50: > 39 µM (inactive)
[27]
  AC50: 1.84 µM (active)
[23]
  AC50: 54.2 µM (active)
[24]
  AC50: 1.18 µM (active)
[25]
  AC50: 1.88 µM (active)
[26]
  AC50: 1.69 µM (active)

## OC[C@@H]1[C@H](c2ccc(-c3ccccc3)cc2)[C@H]2CN(CCC(F)(F)F)CCCCN12
[28]
  AC50: 21.7 µM (active)
[27]
  AC50: 2.13 µM (active)
[23]
  AC50: 18 µM (active)
[24]
  AC50: 0.623 µM (active)
[25]
  AC50: 1.29 µM (active)
[26]
  AC50: 1.15 µM (active)

— ChEMBL document CHEMBL1201862, “PubChem BioAssay data set” (2004)
